Laboratory results from patent publication US11332438B2, “Creatine prodrugs, compositions and methods of use thereof” (Ultragenyx Pharmaceutical Inc., priority 2017, dated 2022).
Entries after “also recorded” stand apart in the source; their conditions may differ.

How the values were obtained:
[1] = from [2H]C([2H])([2H])N(CC(=O)OC1(CCC=C)CCOC1)/C(=N\C(=O)OCc1ccccc1)NC(=O)CCCCCC=C; rcm bond; 17-membered ring; Grubbs II (10 mol%); DCM; 1.95 mM; 50.0 °C; 2.0 h
[2] = Chemical stability in phosphate buffered saline (PBS); format: physicochemical; details: Table 2A, 50 μM prodrug
Outline: (§1)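 Incubations used 50 μM compound at 37 °C in phosphate buffered saline, fasted simulated intestinal fluid without pancreatin, or fasted simulated gastric fluid without pepsin.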

[3] = Liver microsome stability, human; format: in vitro ADME; details: liver microsomes, pH 7.4, Table 2A, read-out: Microsome Stability Human t1/2
Outline: (§2)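 Remaining compound measured by LC/MS after acetonitrile/internal-standard quench at 0–60 min time points (0, 5, 10, 20, 30, 60). Incubations used mouse or human liver microsomes in pH 7.4 potassium phosphate/EDTA buffer with NADPH; a 60-min sample without NADPH served as control.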

[4] = Chemical stability in simulated gastric fluid (SGF) without pepsin; format: physicochemical; details: Table 2A, 50 μM prodrug
Outline: as §1

[5] = Plasma stability, human plasma; format: in vitro ADME; details: Table 2A, 37 °C, read-out: Plasma Stability Human t1/2
Outline: (§3)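 Half-life (min) from LC-MS/MS of acetonitrile-quenched samples taken at t=0, 2, 5, 15, 30 min. Compound dosed at 1 µM final into plasma pre-warmed to 37 °C, pH set to 7.4 where required; incubations at 37 °C.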

[6] = Plasma stability, mouse plasma; format: in vitro ADME; details: Table 2A, 37 °C, read-out: Plasma Stability Mouse t1/2
Outline: as §3

ARPE-19 cells = assay: Creatine prodrug uptake and d3-creatine release in ARPE-19 cells (Table 4A); format: cell-based, human; details: 50 μM, 6 h, cytosol fraction, corrected for total protein
Procedure: At the end of the incubation, supernatant will be collected from each well to assess prodrug recovery. Cells are then washed 3× with PBS. Plates, prodrugs in supernatant, prodrugs in serum-free medium are stored at −80° C. until harvest (within 5 days). On the day of extraction, 130 uL of lysis buffer (10 mM Tris pH 7.4) with EDTA-free protease inhibitors is added to each well and cells are removed using a cell scraper. Lysates are further homogenized using a handheld pestle and then centrifuged at 16,000 g, […], for 10 minutes to collect cytosol fraction. Pellets will be stored at −80° C. until further analysis. A 4× volume of stop solution (80% ACN/20% water) will be added to the cytosol fraction, supernatant and medium. Samples will be centrifuged at 15,890 g (13,000 rpm) at 4° C. for 10 mins. Supernatant will be collected and stored at −80° C. within 5 days prior to LC-MS/MS analysis. Dosing solutions for each prodrug (10 μM) will be assayed to verify concentration. Cells alone with vehicle will serve as controls to assess background signal for LC-MS/MS. Two independent runs of experiment will be conducted.
Nine fatty acid amide creatine prodrugs were tested in human ARPE-19 cells to assess prodrug uptake and d3-Cr release inside the cells. 50 μM of prodrug was incubated in culture medium with the cells and the cells were harvested at 6 h. Quantitation of prodrugs, d3-Cr (d3-creatine) and d3-Cm (d3-creatinine) in the cytosol fraction was corrected for total protein concentration.

[7] = Liver microsome stability, mouse; format: in vitro ADME; details: liver microsomes, pH 7.4, Table 2A, read-out: Microsome Stability Mouse t1/2
Outline: as §2

[8] = In vivo IV dosing in CrT KO mice: prodrug, d3-Cr and d3-Crn in brain (Table 5); details: for AUClast prodrug in the brain: BQL prodrug = 41.2 ng/mL
Procedure: A creatine prodrug is administered as an intravenous bolus injection to groups of three to six adult male CD1 mice at an appropriate creatine prodrug dose equivalent per kg body weight. Animals are conscious at the time of the experiment. Blood samples (0.3 mL) are obtained via a jugular vein cannula at intervals over 8 hours following IV dosing. Blood is processed into plasma, then the plasmais immediately frozen at −80° C. until analyzed by LC-MS/MS. Samples may also be taken form the CSF or other appropriate biological fluid. Brains were collected and flash frozen immediately in liquid nitrogen. Brains were homogenized in 100 mM KPI buffer with a cocktail of anti-proteases on the same day as the sample preparation required for LC-MS/MS analysis.
Several prodrugs with either free COOH group and ester linkage and macrocycles were selected for IV dosing in animal study to assess PK and d3-Cr release in brain in vivo. Prodrugs were IV dosed in CrT KO mice at 10, 15, or 25 mg/kg in animal studies. Mouse brain homogenates (MBH) were prepared from brains collected from mice after dosing. Levels of prodrug, d3-Cr and d3-Crn were quantified in brain and expressed in brain concentration (for macrocycle prodrugs) or AUC (for linear prodrugs) over time. Very few prodrugs were detected in MBH.

[9] = Prodrug cleavage in human brain homogenates (HBH): d3-Cr release and d3-Crn cyclization; format: in vitro ADME; details: for Prodrug Cleavage Human BH d3-Crn release / Prodrug Cleavage Human BH net d3-Cr release: 200 μM prodrug, 3 h, % of nominal input; for Prodrug Cleavage Human BH net d3-Cr release: negative control subtracted
Procedure: (§4) For assessment of the ability of prodrugs to release creatine, and to release creatine preferentially to unwanted cyclization to creatinine, d3-labeled (deuterium labeled methyl group) prodrugs are incubated with brain homogenates (e.g., mouse, human) specially prepared to preserve FAAH activity or with rFAAH for direct cleavage study. The use of d3-labelled prodrugs is essential in order to distinguish prodrug-derived creatine (d3-creatine) from high concentrations of endogenous (non-labeled) creatine. […] Prodrugs are tested at final concentrations of 20 μM and 200 μM. Approximately 3-4 mg of homogenate is used for each reaction. Co-factor (NADPH) is included at a final concentration of 1 mM. FAAH activity is confirmed by conversion of 7-amino-4-methyl Coumarin-Arachidonamide to 7-amino-4-methyl Coumarin by fluorescent assay. Negative controls include incubations without brain homogenate/rFAAH (but with NADPH) or 65° C. heat inactivated brain homogenate/rFAAH to assess non-enzymatic prodrug cleavage under the conditions of the assay and FAAH inhibitor […] at the concentration of 1 μM. Prodrug incubations are prepared by addition of 8 μL of prodrug stock solution (500 or 5000 μM in DMSO or DMSO/methanol) to assay buffered, followed by addition of brain homogenate/rFAAH. […] The samples are centrifuged at 15890×g for 10 minutes at 4° C., followed by transfer of the supernatants for storage at −20° C. pending LC-MS/MS analysis. Sample supernatants are analyzed by LC-MS/MS for determination of d3-prodrug, d3-creatine and d3-creatinine levels.
(§5) Deuterated creatine prodrugs were tested in 3 different in vitro assays to assess d3-creatine (d3-Cr) release and cyclization to form d3-creatinine (d3-Crn). These assays were 1) direct cleavage with recombinant human FAAH enzyme (rFAAH), 2) cleavage in mouse brain homogenates (MBH), and 3) human brain homogenates (HBH).
(§6) Creatine prodrug cleavage efficiency was determined by percentage of net d3-Cr release in μM (positive reaction subtracted from negative control of no brain homogenate/rFAAH or inactivated brain homogenate/rFAAH) over nominal input concentration of 200 μM prodrug at 3 h. Propensity for creatinine cyclization was determined by percentage of d3-Crn generated in μM in positive reaction over nominal input concentration of 200 μM prodrug at 3 h.

[10] = target: T1, recombinant human FAAH enzyme (rFAAH) (Homo sapiens, UniProt O00519); assay: Direct prodrug cleavage with recombinant human FAAH enzyme (rFAAH): d3-Cr release and d3-Crn cyclization; format: biochemical; details: 200 μM prodrug, 3 h; result in words
T1 sequence (O00519 1-579): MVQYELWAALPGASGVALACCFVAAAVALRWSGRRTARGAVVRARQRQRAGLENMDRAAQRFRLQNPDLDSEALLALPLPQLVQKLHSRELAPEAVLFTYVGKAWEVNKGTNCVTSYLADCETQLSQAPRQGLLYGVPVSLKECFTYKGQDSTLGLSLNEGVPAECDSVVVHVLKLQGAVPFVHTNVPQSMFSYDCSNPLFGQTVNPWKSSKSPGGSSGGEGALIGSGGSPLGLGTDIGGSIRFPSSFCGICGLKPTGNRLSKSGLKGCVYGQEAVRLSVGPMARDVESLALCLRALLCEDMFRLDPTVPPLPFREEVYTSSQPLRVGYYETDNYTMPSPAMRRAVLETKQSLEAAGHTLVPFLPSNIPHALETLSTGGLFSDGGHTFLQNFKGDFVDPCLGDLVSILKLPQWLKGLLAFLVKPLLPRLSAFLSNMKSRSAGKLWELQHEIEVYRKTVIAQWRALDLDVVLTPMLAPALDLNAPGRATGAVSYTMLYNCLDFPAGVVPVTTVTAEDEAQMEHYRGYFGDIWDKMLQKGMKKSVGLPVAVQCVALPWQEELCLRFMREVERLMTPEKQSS
Procedure: as §4, §5, §6

[11] = IV 10 mg/kg, CrT KO mouse brain
[12] = in vitro cleavage assays (Table 3A)

Compound	Chemical Stability PBS % T0 at 2 hours at 37 °C. [2]	half-life at 10 μM [3]	Chemical Stability SGF, no enzyme % T0 at 2 hours at 37 °C. [4]	half-life [5]	half-life [6]	prodrug, Cellular Uptake (ARPE-19 cells)	half-life at 10 μM [7]	AUClast prodrug in the brain [8, 11]	further results
[2H]C([2H])([2H])N1CC(=O)OC2(CC/C=C/CCCCCC(=O)N/C1=N/C(=O)OCc1ccccc1)CCOC2 (stereo not shown)									ring closure, isolated yield [1]: 78%
[2H]C([2H])([2H])N(CC(=O)[O-])C(=N)NC(=O)CCCCCCC/C=C\CCCCCCCC.[Na+] [Compound 1, Sodium N-(methyl-d3)-N—(N-oleoylcarbamimidoyl)glycinate]	76%	2.22 h	74%	> 3 h	> 3 h	24.8 nmol/mg protien	1.38 h		
Cl.[2H]C([2H])([2H])N(CC(=O)OCCCCCCC)C(=N)NC(=O)CCCCCCCCCC [Compound 5, Heptyl N-(methyl-d3)-N—(N-undecanoylcarbamimidoyl)glycinate Hydrochloride]	23%	< 0.0833 h	73%	0.0833 h	< 0.0833 h	BQL	< 0.0833 h	BQL	
[2H]C([2H])([2H])N(CC(=O)OC(C)C)C(=N)NC(=O)CCCCCCCCCCCC [Compound 10]								BQL	
Cl.[2H]C([2H])([2H])N(CC(=O)OC(C)C)C(=N)NC(=O)CCCCCCCCCC [Compound 12-HCl]	99%		117%						d3-Cr/d3-Crn release ratio in vivo (in words) ([8]; brain, CrT KO mice): favorable d3-Cr/d3-Crn ratio; Prodrug Cleavage Human BH d3-Crn release [9]: 265.7%; Prodrug Cleavage Human BH net d3-Cr release [9]: 2.9%; d3-Cr release in vitro (in words) [9, 12]: small amount of d3-Cr; d3-Crn (creatinine) cyclization in vitro (in words) [9, 12]: predominantly cyclized into creatinine; also recorded: predominantly creatinine cyclization
[2H]C([2H])([2H])N(CC(=O)OC(C)C)C(=N)NC(=O)CCCCCCCCCC [Compound 12]								BQL	
[2H]C([2H])([2H])N(CC(=O)[O-])C(=N)NC(=O)CCCCCC.[Na+] [Compound 13]	97%	10.8 h	94%	> 3 h	> 3 h		15.2 h	BQL	crossing of BBB (in words) ([8]; CrT KO mice, IV dosing): did not seem to cross BBB; AUClast d3-Cr in the brain ([8]; IV 10 mg/kg, CrT KO mouse brain, BQL d3-Cr = 13.7 ng/mL): BQL; AUClast d3-Crn in the brain ([8]; IV 10 mg/kg, CrT KO mouse brain, BQL d3-Crn = 1.5 ng/mL): BQL
[2H]C([2H])([2H])N(CC(=O)[O-])C(=N)NC(=O)c1cccnc1.[Na+] [Compound 20]	101%	> 2.42 h	78%	> 3 h	> 3 h	BQL	> 2.42 h		d3-Cr, Cellular Uptake (ARPE-19 cells): BQL; d3-Crn, Cellular Uptake (ARPE-19 cells): BQL
[2H]C([2H])([2H])N(CC(=O)O)C(=N)NC(=O)CCCCCCCCCCC [Compound 30]	145%	1.57 h	62%	> 3 h	2.7 h	29.2 nmol/mg protien	> 2.42 h		
Cl.[2H]C([2H])([2H])N(CC(=O)OCC(C)(C)C)C(=N)NC(=O)CCCCCCCCCC [Compound 39]	62%		103%						Prodrug Cleavage Human BH d3-Crn release [9]: 166.5%; Prodrug Cleavage Human BH net d3-Cr release [9]: 6.4%
Cl.[2H]C([2H])([2H])N(CC(=O)OC(C)C)C(=N)NC(=O)CCCCCCC/C=C\CCCCCCCC [Compound 45]	54%		102%			BQL			Prodrug Cleavage rFAAH d3-Crn release (yes/no) [10]: yes; Prodrug Cleavage rFAAH net d3-Cr release (yes/no) [10]: no; d3-Cr, Cellular Uptake (ARPE-19 cells): 0.74 nmol/mg protien; d3-Crn, Cellular Uptake (ARPE-19 cells): 1.03 nmol/mg protien; Prodrug Cleavage Human BH d3-Crn release [9]: 22.0%; Prodrug Cleavage Human BH net d3-Cr release [9]: 0.4%
